Reference: article PMC11594329, “Development of LAT1-Selective Nuclear Medicine Therapeutics Using Astatine-211” (International Journal of Molecular Sciences, 2024)

Legend:
PANC-1 tumor model = assay: Tissue distribution in nude mice (PANC-1 tumor model); assay type: in vivo, BALB/c nu/nu mice; conditions: nude mice (PANC-1 tumor model)
Description: BALB/c nu/nu mice (male, 5 weeks old) were purchased from Japan SLC (Shizuoka, Japan) and subcutaneously transplanted at a density of 1 × 10^7 cells/mouse. PANC-1 cells that reached the logarithmic growth phase were transplanted subcutaneously by mixing a 1 × 10^8 cells/mL cell suspension with an equivalent volume of Matrigel (Corning, Corning, NY, USA) to obtain 1 × 10^7 cells per mouse. Experiments were performed after the size of the transplanted tumor had exceeded 50 mm^3. The doses in the distribution experiments were as follows: ^211At-AAMT-OH-L (0.501 ± 0.011 MBq/mouse, 19.91 ± 0.59 g, n = 3) and ^211At-AAMT-O-Me-L (0.384 ± 0.003 MBq/mouse, 19.18 ± 0.38 g, n = 6 for Table 3), ^211At-AAMT-O-Me-L (158.10 ± 2.94 kBq/mouse, 19.27 ± 0.64 g, n = 6) and ^211At-AAMT-O-Me-D (135.08 ± 2.35 kBq/mouse, 18.64 ± 0.97 g, n = 6), ^211At-AAMT-O-Et-L (0.682 ± 0.011 MBq/mouse, 20.25 ± 1.41 g, n = 6), ^211At-AAMT-O-Pr-L (0.927 ± 0.020 MBq/mouse, 21.74 ± 0.37 g, n = 6).

LAT1-Tet/HEK293 cells = assay: Uptake versus LAT1 expression level (Dox-induced) in LAT1-Tet/HEK293 cells; assay type: cell-based; conditions: collection 30 min after treatment
Description: Each cell line was seeded in 24 wells at 1 × 10^5 cells/mL and allowed to become sub-confluent on the day of the experiment. Cells were washed with PBS (-) (Fujifilm Wako Pure Chemical, Osaka, Japan) prior to the addition of the compound, which was then replaced with uptake buffer. After treating the cells with the same dose, they were collected at predetermined time points. The cell dose was measured using a γ-counter (Wizard^2 2480; PerkinElmer, Waltham, MA, USA), and the protein content of the sample was determined. Protein content was measured using the BCA method, and the dose was corrected using the protein content (Protein Assay BCA kit, Fujifilm Wako Pure Chemical).
Figure 2 Comparison of uptake between the labeled compounds. (A) Relation between uptake ratio and LAT1 expression level. Uptake ratios were compared between LAT1-Tet/HEK293 cells. The Y-axis represents the uptake ratio, and the X-axis is concentration of Doxycycline (Dox) (TaKaRa Bio, Shiga, Japan). The collection time was 30 min after treatment. The expression of LAT1 increased with increasing amounts of Dox. (B) Comparison of uptake in PANC-1 cell line. The collection times were 0.5, 1, 5 and 10 min after treatment.
The PANC-1 cell line was obtained from the RIKEN Cell Bank and maintained in RPMI 1640 medium (Fujifilm Wako Pure Chemical, Osaka, Japan) supplemented with 10% inactivated fetal bovine serum (Thermo Fisher Scientific, Waltham, MA, USA). Mock/HEK293, LAT1/HEK293, and LAT2/HEK203 cells were kindly provided by Dr. Kanai. Cell lines controlling LAT1 expression were constructed using the Tet-on system. HEK293 cells were obtained from the RIKEN Cell Bank and maintained in E-MEM (Fujifilm Wako Pure Chemical) supplemented with 10% inactivated fetal bovine serum (Thermo Fisher Scientific) and non-essential amino acids (Fujifilm Wako Pure Chemical). The expression vectors were purchased from VectorBuilder, Inc. (Kanagawa, Japan). The purified viral particle genes were transfected into HEK293 cells. Drug selection and cloning of the cell line (Tet-LAT1/HEK293) were performed. […]

[1] = Tissue distribution in ICR mice (normal animals); assay type: in vivo
From the text: ICR mice (male, 5 weeks old) were purchased from Japan SLC (Shizuoka, Japan) and acclimated for one week prior to use. The doses in the distribution experiments were as follows: ^211At-AAMT-O-Me-L (0.407 ± 0.005 MBq/mouse, 31.64 ± 0.76 g, n = 6), ^211At-AAMT-O-Me-D (0.351 ± 0.004 MBq/mouse, 31.44 ± 0.94 g, n = 6), ^211At-AAMT-O-Et-L (0.685 ± 0.010 MBq/mouse, 24.14 ± 3.31 g, n = 6), ^211At-AAMT-O-Pr-L (1.09 ± 0.06 MBq/mouse, 26.33 ± 0.39 g, n = 6)

CCCOc1ccc(C[C@](C)(N)C(=O)O)cc1[211At] [^211At-AAMT-O-Pr-L]
Tissue distribution, Bladder (PANC-1 tumor model; 10 min after injection): 18.24 ± 4.50 %ID/g
Tissue distribution, Blood (PANC-1 tumor model; 10 min after injection): 4.33 ± 0.45 %ID/g
Tissue distribution, Bone (PANC-1 tumor model; 10 min after injection): 3.50 ± 0.13 %ID/g
Tissue distribution, Brain (PANC-1 tumor model; 10 min after injection): 1.01 ± 0.04 %ID/g
Tissue distribution, Cecum (PANC-1 tumor model; 10 min after injection): 3.35 ± 0.30 %ID/g
Tissue distribution, Colon (PANC-1 tumor model; 10 min after injection): 4.56 ± 0.31 %ID/g
Tissue distribution, Heart (PANC-1 tumor model; 10 min after injection): 9.66 ± 0.87 %ID/g
Tissue distribution, Kidney (PANC-1 tumor model; 10 min after injection): 10.29 ± 0.97 %ID/g
Tissue distribution, Liver (PANC-1 tumor model; 10 min after injection): 3.67 ± 0.41 %ID/g
Tissue distribution, Lung (PANC-1 tumor model; 10 min after injection): 18.16 ± 1.88 %ID/g
Tissue distribution, Pancreas (PANC-1 tumor model; 10 min after injection): 10.85 ± 1.53 %ID/g
Tissue distribution, Salivary glands (PANC-1 tumor model; 10 min after injection): 11.89 ± 0.06 %ID/g
Tissue distribution, Small intestine (PANC-1 tumor model; 10 min after injection): 6.80 ± 0.63 %ID/g
Tissue distribution, Spleen (PANC-1 tumor model; 10 min after injection): 11.84 ± 1.91 %ID/g
Tissue distribution, Stomach (PANC-1 tumor model; 10 min after injection): 7.31 ± 0.30 %ID/g
Tissue distribution, Testis (PANC-1 tumor model; 10 min after injection): 3.54 ± 0.28 %ID/g
Tissue distribution, Thyroid (PANC-1 tumor model; 10 min after injection): 9.74 ± 0.39 %ID/g
Tissue distribution, Tumor (PANC-1 tumor model; 10 min after injection): 5.91 ± 0.27 %ID/g
Tissue distribution, Bladder (PANC-1 tumor model; 1 h after injection): 18.00 ± 0.97 %ID/g
Tissue distribution, Blood (PANC-1 tumor model; 1 h after injection): 3.09 ± 0.25 %ID/g
Tissue distribution, Bone (PANC-1 tumor model; 1 h after injection): 2.03 ± 0.45 %ID/g
Tissue distribution, Brain (PANC-1 tumor model; 1 h after injection): 0.79 ± 0.13 %ID/g
Tissue distribution, Cecum (PANC-1 tumor model; 1 h after injection): 3.07 ± 1.06 %ID/g
Tissue distribution, Colon (PANC-1 tumor model; 1 h after injection): 3.27 ± 0.46 %ID/g
Tissue distribution, Heart (PANC-1 tumor model; 1 h after injection): 5.39 ± 1.06 %ID/g
Tissue distribution, Kidney (PANC-1 tumor model; 1 h after injection): 5.76 ± 0.67 %ID/g
Tissue distribution, Liver (PANC-1 tumor model; 1 h after injection): 2.41 ± 0.24 %ID/g
Tissue distribution, Lung (PANC-1 tumor model; 1 h after injection): 14.15 ± 1.78 %ID/g
Tissue distribution, Pancreas (PANC-1 tumor model; 1 h after injection): 3.54 ± 0.49 %ID/g
Tissue distribution, Salivary glands (PANC-1 tumor model; 1 h after injection): 20.98 ± 3.26 %ID/g
Tissue distribution, Small intestine (PANC-1 tumor model; 1 h after injection): 5.08 ± 0.53 %ID/g
Tissue distribution, Spleen (PANC-1 tumor model; 1 h after injection): 17.42 ± 6.48 %ID/g
Tissue distribution, Testis (PANC-1 tumor model; 1 h after injection): 3.56 ± 0.41 %ID/g
Tissue distribution, Thyroid (PANC-1 tumor model; 1 h after injection): 16.44 ± 1.16 %ID/g
Tissue distribution, Tumor (PANC-1 tumor model; 1 h after injection): 9.45 ± 0.82 %ID/g
Uptake ratio versus LAT1 expression (doxycycline concentration) (LAT1-Tet/HEK293 cells): lower cellular uptake when LAT1 expression increased
Tissue distribution, Bladder ([1]; 1 h after injection): 20.82 ± 5.36 %ID/g
Tissue distribution, Blood ([1]; 1 h after injection): 1.77 ± 0.15 %ID/g
Tissue distribution, Bone ([1]; 1 h after injection): 1.79 ± 0.12 %ID/g
Tissue distribution, Brain ([1]; 1 h after injection): 0.25 ± 0.02 %ID/g
Tissue distribution, Cecum ([1]; 1 h after injection): 1.49 ± 0.14 %ID/g
Tissue distribution, Colon ([1]; 1 h after injection): 1.35 ± 0.07 %ID/g
Tissue distribution, Heart ([1]; 1 h after injection): 3.14 ± 0.20 %ID/g
Tissue distribution, Kidney ([1]; 1 h after injection): 2.25 ± 0.19 %ID/g
Tissue distribution, Liver ([1]; 1 h after injection): 1.18 ± 0.08 %ID/g
Tissue distribution, Lung ([1]; 1 h after injection): 6.54 ± 0.34 %ID/g
Tissue distribution, Pancreas ([1]; 1 h after injection): 2.55 ± 0.60 %ID/g
Tissue distribution, Salivary glands ([1]; 1 h after injection): 14.23 ± 3.16 %ID/g
Tissue distribution, Small intestine ([1]; 1 h after injection): 1.83 ± 0.23 %ID/g
Tissue distribution, Spleen ([1]; 1 h after injection): 4.11 ± 0.11 %ID/g
Tissue distribution, Stomach ([1]; 1 h after injection): 13.55 ± 2.66 %ID/g
Tissue distribution, Testis ([1]; 1 h after injection): 3.66 ± 0.14 %ID/g
Tissue distribution, Thymus ([1]; 1 h after injection): 2.03 ± 0.28 %ID/g
Tissue distribution, Thyroid ([1]; 1 h after injection): 23.08 ± 3.56 %ID/g
Tissue distribution, Bladder ([1]; 3 h after injection): 5.37 ± 0.73 %ID/g
Tissue distribution, Blood ([1]; 3 h after injection): 1.30 ± 0.12 %ID/g
Tissue distribution, Bone ([1]; 3 h after injection): 1.32 ± 0.12 %ID/g
Tissue distribution, Brain ([1]; 3 h after injection): 0.16 ± 0.01 %ID/g
Tissue distribution, Cecum ([1]; 3 h after injection): 1.13 ± 0.25 %ID/g
Tissue distribution, Colon ([1]; 3 h after injection): 1.29 ± 0.25 %ID/g
Tissue distribution, Heart ([1]; 3 h after injection): 2.16 ± 0.18 %ID/g
Tissue distribution, Kidney ([1]; 3 h after injection): 1.93 ± 0.29 %ID/g
Tissue distribution, Liver ([1]; 3 h after injection): 0.82 ± 0.14 %ID/g
Tissue distribution, Lung ([1]; 3 h after injection): 5.09 ± 0.43 %ID/g
Tissue distribution, Pancreas ([1]; 3 h after injection): 1.60 ± 0.31 %ID/g
Tissue distribution, Salivary glands ([1]; 3 h after injection): 11.39 ± 0.33 %ID/g
Tissue distribution, Small intestine ([1]; 3 h after injection): 1.92 ± 0.12 %ID/g
Tissue distribution, Spleen ([1]; 3 h after injection): 3.56 ± 0.54 %ID/g
Tissue distribution, Stomach ([1]; 3 h after injection): 32.05 ± 3.31 %ID/g
Tissue distribution, Testis ([1]; 3 h after injection): 2.34 ± 0.42 %ID/g
Tissue distribution, Thymus ([1]; 3 h after injection): 1.76 ± 0.25 %ID/g
Tissue distribution, Thyroid ([1]; 3 h after injection): 24.75 ± 3.77 %ID/g

C[C@](N)(Cc1ccc(O)c([211At])c1)C(=O)O [^211At-AAMT-OH-L, 3-[^211At] Astato-α-methyl-L-tyrosine]
Tissue distribution, Bladder (PANC-1 tumor model; 24 h after injection): 1.01 ± 0.10 %ID/g
Tissue distribution, Blood (PANC-1 tumor model; 24 h after injection): 0.04 ± 0.02 %ID/g
Tissue distribution, Bone (PANC-1 tumor model; 24 h after injection): 4.29 ± 3.90 %ID/g
Tissue distribution, Brain (PANC-1 tumor model; 24 h after injection): 0.68 ± 0.16 %ID/g
Tissue distribution, Cecum (PANC-1 tumor model; 24 h after injection): 6.60 ± 2.78 %ID/g
Tissue distribution, Colon (PANC-1 tumor model; 24 h after injection): 1.03 ± 0.34 %ID/g
Tissue distribution, Heart (PANC-1 tumor model; 24 h after injection): 2.29 ± 1.20 %ID/g
Tissue distribution, Kidney (PANC-1 tumor model; 24 h after injection): 0.07 ± 0.02 %ID/g
Tissue distribution, Liver (PANC-1 tumor model; 24 h after injection): 1.02 ± 0.60 %ID/g
Tissue distribution, Lung (PANC-1 tumor model; 24 h after injection): 1.90 ± 0.55 %ID/g
Tissue distribution, Pancreas (PANC-1 tumor model; 24 h after injection): 2.39 ± 2.03 %ID/g
Tissue distribution, Salivary glands (PANC-1 tumor model; 24 h after injection): 0.42 ± 0.17 %ID/g
Tissue distribution, Small intestine (PANC-1 tumor model; 24 h after injection): 0.09 ± 0.01 %ID/g
Tissue distribution, Spleen (PANC-1 tumor model; 24 h after injection): 0.72 ± 0.22 %ID/g
Tissue distribution, Stomach (PANC-1 tumor model; 24 h after injection): 1.84 ± 0.81 %ID/g
Tissue distribution, Testis (PANC-1 tumor model; 24 h after injection): 0.57 ± 0.44 %ID/g
Tissue distribution, Thyroid (PANC-1 tumor model; 24 h after injection): 11.65 ± 4.36 %ID/g
Tissue distribution, Tumor (PANC-1 tumor model; 24 h after injection): 0.71 ± 0.46 %ID/g
Amount remaining in cecum relative to ^211At-AAMT-O-Me-L (PANC-1 tumor model; after 24 h): 3.2 fold
Amount remaining in femur, including the bone marrow, relative to ^211At-AAMT-O-Me-L (PANC-1 tumor model; after 24 h): 5.7 fold
Amount remaining in pancreas relative to ^211At-AAMT-O-Me-L (PANC-1 tumor model; after 24 h): 4.1 fold
Amount remaining in thyroid relative to ^211At-AAMT-O-Me-L (PANC-1 tumor model; after 24 h): 5.2 fold
